Measured values from ChEMBL document CHEMBL5055685, “Discovery of the First Potent IDO1/IDO2 Dual Inhibitors: A Promising Strategy for Cancer Immunotherapy” (J Med Chem, 2021).
Blank lines part the entries; values can stand above or below the compound they belong to.

Legend:
[1] = molecular target: T1, Indoleamine 2,3-dioxygenase 1 (Homo sapiens, UniProt P14902); experiment: Inhibition of IDO1 in IFNgamma-stimulated human HeLa cells assessed as reduction in kynurenine formation measured after 48 hrs by spectrophotometry
T1 sequence (P14902 whole entry): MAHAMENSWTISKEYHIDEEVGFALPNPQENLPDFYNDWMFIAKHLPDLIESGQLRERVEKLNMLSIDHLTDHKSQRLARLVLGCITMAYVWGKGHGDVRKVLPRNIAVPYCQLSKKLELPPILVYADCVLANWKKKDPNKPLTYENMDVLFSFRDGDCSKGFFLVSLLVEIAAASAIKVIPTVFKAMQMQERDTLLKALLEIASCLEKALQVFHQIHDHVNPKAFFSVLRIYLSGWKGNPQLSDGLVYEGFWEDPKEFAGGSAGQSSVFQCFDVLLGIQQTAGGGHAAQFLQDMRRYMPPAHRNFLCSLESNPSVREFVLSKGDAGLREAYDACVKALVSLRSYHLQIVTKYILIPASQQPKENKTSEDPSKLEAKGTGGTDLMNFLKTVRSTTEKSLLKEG

[2] = molecular target: T1, Indoleamine 2,3-dioxygenase 1; experiment: Inhibition of IDO1 (unknown origin) assessed as reduction in kynurenine formation using L-tryptophan as substrate by methylene blue reagent based assay
[3] = molecular target: T2, Indoleamine 2,3-dioxygenase 2 (Homo sapiens, UniProt Q6ZQW0); experiment: Inhibition of IDO2 (unknown origin) assessed as reduction in kynurenine formation using L-tryptophan as substrate by methylene blue reagent based assay
T2 sequence (Q6ZQW0 whole entry): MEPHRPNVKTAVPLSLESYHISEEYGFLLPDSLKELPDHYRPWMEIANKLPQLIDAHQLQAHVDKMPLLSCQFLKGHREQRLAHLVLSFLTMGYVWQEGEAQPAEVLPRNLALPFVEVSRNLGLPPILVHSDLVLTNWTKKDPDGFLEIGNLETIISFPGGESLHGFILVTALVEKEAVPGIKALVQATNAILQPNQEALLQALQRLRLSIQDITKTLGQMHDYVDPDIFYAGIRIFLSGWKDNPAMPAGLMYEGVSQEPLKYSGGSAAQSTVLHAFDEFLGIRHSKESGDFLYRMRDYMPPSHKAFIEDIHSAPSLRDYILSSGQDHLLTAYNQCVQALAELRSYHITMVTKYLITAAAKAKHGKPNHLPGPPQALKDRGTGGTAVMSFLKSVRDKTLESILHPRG

[4] = Inhibition of IDO1/IDO2 in IFNgamma/LPS-stimulated human PBMCs assessed as reduction in kynurenine formation pretreated with compound for 15 mins followed by IFNgamma/LPS stimulation by LC-MS/MS analysis; format: tissue-based; details: PBMC

IC50 [1]: 0.0063 µM
Compound: CCOc1cc(CNC(=O)c2ncoc2-c2ccc(OC)cc2)cc(OCC)c1OCC

IC50 [2]: 0.115 µM
IC50 [3]: 0.726 µM
Compound: CC(C)(O)c1cn(CCNc2nonc2/C(=N/O)Nc2ccc(F)c(Br)c2)nn1

IC50 [4]: 0.0054 µM
Compound: CCOC(=O)N1CCC2(CC1)C[C@H](NC(=O)c1cccc3cn[nH]c13)c1cc(Br)ccc1O2
